Reference: patent US9890171B2, “Aldosterone synthase inhibitors” (Boehringer Ingelheim International GmbH, priority 2014, dated 2018)

target: aldosterone synthase (CYP11B2) (Macaca fascicularis, UniProt A0A2K5UPL9); experiment: aldosterone synthase inhibition assay; format: biochemical, cynomolgus monkey; settings: cynomolgus adrenal gland mitochondria, 2 μM corticosterone, aldosterone quantified by mass spectrometry
Description: The aldosterone synthase inhibition assay employs cynomolgus adrenal gland mitochondria as the source of aldosterone synthase (CYP11B2). Mitochondria are prepared from frozen cynomolgus monkey adrenal glands according to Method A described in by J. D. McGarry et al. (Biochem. J., 1983, 214, 21-28), with a final resuspension in the AT buffer described in R. Yamaguchi et al. (Cell Death and Differentiation, 2007, 14, 616-624), frozen as aliquots in liquid nitrogen and stored at −80° C. until use.
Assays are performed in 96-well format in a final volume of 60 μL/well, containing 100 mM potassium phosphate, pH 7.4, 1% (v/v) DMSO, and additionally, 2 μM of corticosterone and […] of mitochondrial protein. Reactions are started by the addition of NADPH to 1 mM and allowed to proceed for 60-90 minutes at 37° C. Reactions are terminated by the addition of […]. One hundred microliters are then transferred to a glass filter plate and centrifuged at 570×g for 5 minutes and the filtrate is collected. Reaction product aldosterone is quantified by mass spectrometry. To determine the assay blank value (0% activity), NADPH is omitted from some reactions.
Dose dependent inhibition is quantified by the inclusion of compound at various concentrations. Maximum activity (100%) is defined by reactions containing NADPH, but without compound. Activities at each concentration are expressed as a percentage of the maximum activity (y-axis) and plotted against concentration of compound (x-axis) and the concentration corresponding to 50% activity (IC50) determined using the XLFit curve-fitting program using a 4-parameter logistic model.

Chain of aldosterone synthase (CYP11B2) (A0A2K5UPL9 1-503): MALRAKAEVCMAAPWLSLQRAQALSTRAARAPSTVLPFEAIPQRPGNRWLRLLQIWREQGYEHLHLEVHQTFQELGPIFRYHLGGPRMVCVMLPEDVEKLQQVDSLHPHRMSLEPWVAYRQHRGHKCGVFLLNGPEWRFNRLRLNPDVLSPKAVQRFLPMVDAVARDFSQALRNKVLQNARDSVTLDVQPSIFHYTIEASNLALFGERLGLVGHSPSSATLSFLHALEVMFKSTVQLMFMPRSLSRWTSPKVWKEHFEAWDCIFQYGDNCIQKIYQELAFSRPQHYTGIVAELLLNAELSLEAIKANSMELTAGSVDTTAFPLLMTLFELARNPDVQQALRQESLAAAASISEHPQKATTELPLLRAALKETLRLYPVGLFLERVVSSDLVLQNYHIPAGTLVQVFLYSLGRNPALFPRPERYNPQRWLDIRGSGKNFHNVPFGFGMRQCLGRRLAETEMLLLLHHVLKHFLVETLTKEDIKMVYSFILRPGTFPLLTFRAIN

SMILES	IC50 [nM]
CCC(=O)NC1COCc2c(-c3ccc4[nH]nc(C)c4c3)cncc21 (single isomer, unassigned) [Compound 61, N-[8-(3-Methyl-1H-indazol-5-yl)-3,4-dihydro-1H-pyrano[4,3-c]pyridin-4-yl]-propionamide]	36.2
CCC(=O)NC1COCc2c(-c3ccc4c(C)n[nH]c4c3)cncc21 (single isomer, unassigned) [Compound 62, N-[8-(3-Methyl-1H-indazol-6-yl)-3,4-dihydro-1H-pyrano[4,3-c]pyridin-4-yl]-propionamide]	139
CCS(=O)(=O)NC1COCc2c(-c3ccc4c(c3)CC(=O)N4C)cncc21 (single isomer, unassigned) [Compound 63, Ethanesulfonic acid [8-(1-methyl-2-oxo-2,3-dihydro-1H-indol-5-yl)-3,4-dihydro-1H-pyrano[4,3-c]pyridin-4-yl]-amide]	85.2
CCS(=O)(=O)NC1COCc2c(-c3ccc4c(c3)CC(=O)N4)cncc21 (single isomer, unassigned) [Compound 64, Ethanesulfonic acid [8-(2-oxo-2,3-dihydro-1H-indol-5-yl)-3,4-dihydro-1H-pyrano[4,3-c]pyridin-4-yl]-amide]	611
CCS(=O)(=O)NC1COCc2c(-c3ccc4nnn(C)c4c3)cncc21 (single isomer, unassigned) [Compound 65, Ethanesulfonic acid [8-(3-methyl-3H-benzotriazol-5-yl)-3,4-dihydro-1H-pyrano[4,3-c]pyridin-4-yl]-amide]	36.1
CCS(=O)(=O)NC1COCc2c(-c3ccc4c(C)n[nH]c4c3)cncc21 (single isomer, unassigned) [Compound 66, Ethanesulfonic acid [8-(3-methyl-1H-indazol-6-yl)-3,4-dihydro-1H-pyrano[4,3-c]pyridin-4-yl]-amide]	1000
CCS(=O)(=O)NC1COCc2c(-c3ccc4c(F)nn(C)c4c3)cncc21 (single isomer, unassigned) [Compound 68, Ethanesulfonic acid [8-(3-fluoro-1-methyl-1H-indazol-6-yl)-3,4-dihydro-1H-pyrano[4,3-c]pyridin-4-yl]-amide]	15.9
CCS(=O)(=O)NC1COCc2c(-c3ccc4[nH]nc(C)c4c3)cncc21 (single isomer, unassigned) [Compound 69, Ethanesulfonic acid [8-(3-methyl-1H-indazol-5-yl)-3,4-dihydro-1H-pyrano[4,3-c]pyridin-4-yl]-amide]	84.6
Cc1cc2cnn(C)c2cc1-c1cncc2c1COCC2N (single isomer, unassigned) [Compound 70, 8-(1,5-Dimethyl-1H-indazol-6-yl)-3,4-dihydro-1H-pyrano[4,3-c]pyridin-4-ylamine]	166
CCS(=O)(=O)NC1COCc2c(-c3cc4c(cnn4C)cc3C)cncc21 (single isomer, unassigned) [Compound 78, Ethanesulfonic acid [8-(1,5-dimethyl-1H-indazol-6-yl)-3,4-dihydro-1H-pyrano[4,3-c]pyridin-4-yl]-amide]	2800
CCS(=O)(=O)NC1COCc2c(-c3cc4c(cnn4C)cc3C)cncc21 (single isomer, unassigned) [Compound 79, Ethanesulfonic acid [8-(1,5-dimethyl-1H-indazol-6-yl)-3,4-dihydro-1H-pyrano[4,3-c]pyridin-4-yl]-amide]	653
O=C1NCCc2cc(-c3cncc4c3COC3(CC3)C4O)ccc21 (single isomer, unassigned) [Compound 84, 6-[4-hydroxyspiro[1,4-dihydropyrano[4,3-c]pyridine-3,1′-cyclopropane]-8-yl]-3,4-dihydro-2H-isoquinolin-1-one]	255
O=C1NCCc2cc(-c3cncc4c3COC3(CC3)C4O)ccc21 (single isomer, unassigned) [Compound 85, 6-[4-hydroxyspiro[1,4-dihydropyrano[4,3-c]pyridine-3,1′-cyclopropane]-8-yl]-3,4-dihydro-2H-isoquinolin-1-one]	90.9

More lines, now with the values ahead:

IC50 [nM]	SMILES
110	CCS(=O)(=O)NC1COCc2c(-c3ccc4ncn(C)c4c3)cncc21 (single isomer, unassigned) [Compound 67, Ethanesulfonic acid [8-(3-methyl-3H-benzoimidazol-5-yl)-3,4-dihydro-1H-pyrano[4,3-c]pyridin-4-yl]-amide]
22.2	Cn1ncc2ccc(-c3cncc4c3COCC4N)cc21 (single isomer, unassigned) [Compound 71, 8-(1-Methyl-1H-indazol-6-yl)-3,4-dihydro-1H-pyrano[4,3-c]pyridin-4-ylamine]
2300	CCC(=O)NC1COCc2c(-c3ccc4c(cnn4C)c3)cncc21 (single isomer, unassigned) [Compound 72, N-[8-(1-Methyl-1H-indazol-5-yl)-3,4-dihydro-1H-pyrano[4,3-c]pyridin-4-yl]-propionamide]
34.6	CCC(=O)NC1COCc2c(-c3ccc4c(cnn4C)c3)cncc21 (single isomer, unassigned) [Compound 73, N-[8-(1-Methyl-1H-indazol-5-yl)-3,4-dihydro-1H-pyrano[4,3-c]pyridin-4-yl]-propionamide]
25.6	CC(=O)NC1COCc2c(-c3ccc4cnn(C)c4c3)cncc21 (single isomer, unassigned) [Compound 74, N-[8-(1-Methyl-1H-indazol-6-yl)-3,4-dihydro-1H-pyrano[4,3-c]pyridin-4-yl]-acetamide]
26.4	Cn1ncc2ccc(-c3cncc4c3COCC4NC(=O)C3CC3)cc21 (single isomer, unassigned) [Compound 75, Cyclopropanecarboxylic acid [8-(1-methyl-1H-indazol-6-yl)-3,4-dihydro-1H-pyrano[4,3-c]pyridin-4-yl]-amide]
17.9	CCC(=O)NC1COCc2c(-c3ccc4cnn(C)c4c3)cncc21 (single isomer, unassigned) [Compound 76, N-[8-(1-Methyl-1H-indazol-6-yl)-3,4-dihydro-1H-pyrano[4,3-c]pyridin-4-yl]-propionamide]
32.6	CC(C)C(=O)NC1COCc2c(-c3ccc4cnn(C)c4c3)cncc21 (single isomer, unassigned) [Compound 77, N-[8-(1-Methyl-1H-indazol-6-yl)-3,4-dihydro-1H-pyrano[4,3-c]pyridin-4-yl]-isobutyramide]
2100	Cn1ncc2ccc(-c3cncc4c3COCC4NS(C)(=O)=O)cc21 (single isomer, unassigned) [Compound 80, N-[8-(1-Methyl-1H-indazol-6-yl)-3,4-dihydro-1H-pyrano[4,3-c]pyridin-4-yl]-methanesulfonamide]
28.5	Cn1ncc2ccc(-c3cncc4c3COCC4NS(C)(=O)=O)cc21 (single isomer, unassigned) [Compound 81, N-[8-(1-Methyl-1H-indazol-6-yl)-3,4-dihydro-1H-pyrano[4,3-c]pyridin-4-yl]-methanesulfonamide]
215	CCS(=O)(=O)NC1COCc2c(-c3ccc4c(cnn4C)c3)cncc21 (single isomer, unassigned) [Compound 82, Ethanesulfonic acid [8-(1-methyl-1H-indazol-5-yl)-3,4-dihydro-1H-pyrano[4,3-c]pyridin-4-yl]-amide]
31.3	CCS(=O)(=O)NC1COCc2c(-c3ccc4cnn(C)c4c3)cncc21 (single isomer, unassigned) [Compound 83, Ethanesulfonic acid [8-(1-methyl-1H-indazol-6-yl)-3,4-dihydro-1H-pyrano[4,3-c]pyridin-4-yl]-amide]
494	Cc1ncc2ccc(-c3cncc4c3COCC4O)cn12 (single isomer, unassigned) [Compound 86, 8-(3-Methyl-imidazo[1,5-a]pyridin-6-yl)-3,4-dihydro-1H-pyrano[4,3-c]pyridin-4-ol]
123	Cc1ncc2ccc(-c3cncc4c3COCC4O)cn12 (single isomer, unassigned) [Compound 87, 8-(3-Methyl-imidazo[1,5-a]pyridin-6-yl)-3,4-dihydro-1H-pyrano[4,3-c]pyridin-4-ol]
128	Cc1ncc2ccc(-c3cncc4c3COC3(CC3)C4O)cn12 (single isomer, unassigned) [Compound 88, 8-(3-methylimidazo[1,5-a]pyridin-6-yl)spiro[1,4-dihydropyrano[4,3-c]pyridine-3,1′-cyclopropane]-4-ol]
73	Cc1ncc2ccc(-c3cncc4c3COC3(CC3)C4O)cn12 (single isomer, unassigned) [Compound 89, 8-(3-methylimidazo[1,5-a]pyridin-6-yl)spiro[1,4-dihydropyrano[4,3-c]pyridine-3,1′-cyclopropane]-4-ol]
8.5	Cc1noc2ccc(-c3cncc4c3COCC4O)cc12 (single isomer, unassigned) [Compound 90, 8-(3-Methyl-benzo[d]isoxazol-5-yl)-3,4-dihydro-1H-pyrano[4,3-c]pyridin-4-ol]
220	Cc1nnc2ccc(-c3cncc4c3COC3(CC3)C4O)cn12 (single isomer, unassigned) [Compound 91, 8-(3-methyl-[1,2,4]triazolo[4,3-a]pyridin-6-yl)spiro[1,4-dihydropyrano[4,3-c]pyridine-3,1′-cyclopropane]-4-ol]
